How the values were obtained:
Format in all cases: in vivo
[1] = test system: Amaranthus retroflexus (AMARE); test: Herbicidal post-emergence action (D), 320 g/ha; conditions: ca. 3 weeks
Summary of the method: (§1)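 Weeds sown in sandy loam and greenhouse-grown for 2 to 3 weeks, then sprayed at single-leaf stage with WP or EC formulations in water plus 0.5% additive at 600 l water/ha. After ca. 3 weeks, injury scored visually versus untreated controls: 0% = as control, 100% = plants dead.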

[2] = test system: Amaranthus retroflexus (AMARE); test: Herbicidal pre-emergence action (C), 320 g/ha; conditions: ca. 3 weeks
Summary of the method: (§2)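 Pre-emergence greenhouse test: visual damage rating at about 3 weeks relative to untreated plants, 100% meaning death and 0% no effect. Compounds, as wettable powders or emulsifiable concentrates with 0.5% additive, were applied at 320 g/ha (600 l water/ha) onto soil covering seeds sown in sandy loam.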

[3] = test system: Alopecurus myosuroides (ALOMY); test: Herbicidal pre-emergence action (C), 320 g/ha; conditions: ca. 3 weeks
Summary of the method: as §2

Setaria viridis (SETVI) [4] = test: Herbicidal pre-emergence action (C), 320 g/ha; conditions: ca. 3 weeks
Summary of the method: as §2

Veronica persica (VERPE) [5] = test: Herbicidal pre-emergence action (C), 320 g/ha; conditions: ca. 3 weeks
Summary of the method: as §2

[6] = test system: Kochia scoparia (KCHSC; Bassia scoparia); test: Herbicidal pre-emergence action (A), 1280 g/ha; conditions: visual grading after ca. 3 weeks vs untreated controls
Summary of the method: (§3)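 Visual percent damage scored about 3 weeks after treatment relative to untreated pots (100% = complete kill, 0% = no effect). Compounds, as wettable powder or emulsifiable concentrate plus 0.5% additive in 600 l water/ha, were applied to the soil surface over freshly sown seeds in sandy loam, greenhouse-grown.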

[7] = test system: Amaranthus retroflexus (AMARE); test: Herbicidal pre-emergence action (A), 1280 g/ha; conditions: visual grading after ca. 3 weeks vs untreated controls
Summary of the method: as §3

[8] = test system: Alopecurus myosuroides (ALOMY); test: Herbicidal pre-emergence action (A), 1280 g/ha; conditions: visual grading after ca. 3 weeks vs untreated controls, 100% = plants have died off, 0% = as control plants
Summary of the method: as §3

Poa annua (POAAN) [9] = test: Herbicidal pre-emergence action (A), 1280 g/ha; conditions: visual grading after ca. 3 weeks vs untreated controls, 100% = plants have died off, 0% = as control plants
Summary of the method: as §3

Lolium rigidum (LOLRI) [10] = test: Herbicidal pre-emergence action (A), 1280 g/ha; conditions: visual grading after ca. 3 weeks vs untreated controls, 100% = plants have died off, 0% = as control plants
Summary of the method: as §3

[11] = test system: Echinochloa crus-galli (ECHCG); test: Herbicidal pre-emergence action (A), 1280 g/ha; conditions: visual grading after ca. 3 weeks vs untreated controls, 100% = plants have died off, 0% = as control plants
Summary of the method: as §3

Setaria viridis (SETVI) [12] = test: Herbicidal pre-emergence action (A), 1280 g/ha; conditions: visual grading after ca. 3 weeks vs untreated controls
Summary of the method: as §3

Stellaria media (STEME) [13] = test: Herbicidal pre-emergence action (A), 1280 g/ha; conditions: visual grading after ca. 3 weeks vs untreated controls
Summary of the method: as §3

[14] = test system: Digitaria sanguinalis (DIGSA); test: Herbicidal pre-emergence action (A), 1280 g/ha; conditions: visual grading after ca. 3 weeks vs untreated controls, 100% = plants have died off, 0% = as control plants
Summary of the method: as §3

Veronica persica (VERPE) [15] = test: Herbicidal pre-emergence action (A), 1280 g/ha; conditions: visual grading after ca. 3 weeks vs untreated controls
Summary of the method: as §3

[16] = test system: Kochia scoparia (KCHSC; Bassia scoparia); test: Herbicidal post-emergence action (B), 1280 g/ha
Summary of the method: (§4)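 Compounds formulated as wettable powder or emulsion concentrate, with 0.5% additive, sprayed at 600 l/ha onto one-leaf-stage plants grown in sandy loam for 2 to 3 weeks. Damage rated visually against untreated plants roughly 3 weeks later; 0% = like control, 100% = plants died.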

[17] = test system: Amaranthus retroflexus (AMARE); test: Herbicidal post-emergence action (B), 1280 g/ha; conditions: rated visually after about 3 weeks vs untreated controls
Summary of the method: as §4

[18] = test system: Alopecurus myosuroides (ALOMY); test: Herbicidal post-emergence action (B), 1280 g/ha; conditions: rated visually after about 3 weeks vs untreated controls
Summary of the method: as §4

[19] = test system: Abutilon theophrasti (ABUTH); test: Herbicidal post-emergence action (B), 1280 g/ha; conditions: rated visually after about 3 weeks vs untreated controls
Summary of the method: as §4

Poa annua (POAAN) [20] = test: Herbicidal post-emergence action (B), 1280 g/ha; conditions: rated visually after about 3 weeks vs untreated controls
Summary of the method: as §4

Lolium rigidum (LOLRI) [21] = test: Herbicidal post-emergence action (B), 1280 g/ha; conditions: one-leaf stage, rated after about 3 weeks vs untreated controls, 100% activity = the plants have died, 0% = like control plants
Summary of the method: as §4

Stellaria media (STEME) [22] = test: Herbicidal post-emergence action (B), 1280 g/ha
Summary of the method: as §4

[23] = test system: Digitaria sanguinalis (DIGSA); test: Herbicidal post-emergence action (B), 1280 g/ha; conditions: rated visually after about 3 weeks vs untreated controls
Summary of the method: as §4

Veronica persica (VERPE) [24] = test: Herbicidal post-emergence action (B), 1280 g/ha
Summary of the method: as §4

[25] = test system: Alopecurus myosuroides (ALOMY); test: Herbicidal post-emergence action (D), 320 g/ha; conditions: ca. 3 weeks
Summary of the method: as §1

Veronica persica (VERPE) [26] = test: Herbicidal post-emergence action (D), 320 g/ha; conditions: ca. 3 weeks
Summary of the method: as §1

Lolium rigidum (LOLRI) [27] = test: Herbicidal pre-emergence action (C), 320 g/ha; conditions: ca. 3 weeks
Summary of the method: as §2

[28] = test system: Echinochloa crus-galli (ECHCG); test: Herbicidal pre-emergence action (C), 320 g/ha; conditions: ca. 3 weeks
Summary of the method: as §2

[29] = test system: Digitaria sanguinalis (DIGSA); test: Herbicidal pre-emergence action (C), 320 g/ha; conditions: ca. 3 weeks
From the text: Seeds of mono- and dicotyledonous weed plants and crop plants were sown, in plastic or organic planting pots, in sandy loam and covered with soil. The compounds according to the invention, formulated in the form of wettable powders (WP) or as emulsifiable concentrates (EC), were applied to the surface of the covering soil as aqueous suspension or emulsion, with the addition of 0.5% of an additive, at an application rate of 600 l of water/ha (converted).
Following treatment, the pots were placed in a greenhouse and kept under optimum growth conditions for the test plants. The visual grading of the damage to the test plants was carried out after ca. 3 weeks in comparison to untreated controls (herbicidal effect in percent (%): 100% effect=plants have died off, 0% effect=as control plants).
Tables C1 to C13 below show the effects of selected compounds of the general formula (I) according to table 1 on various harmful plants and an application rate corresponding to 320 g/ha obtained by the experimental procedure mentioned above.

[30] = test system: Matricaria inodora (MATIN); test: Herbicidal pre-emergence action (A), 1280 g/ha; conditions: visual grading after ca. 3 weeks vs untreated controls
Summary of the method: as §3

[31] = test system: Echinochloa crus-galli (ECHCG); test: Herbicidal post-emergence action (B), 1280 g/ha; conditions: rated visually after about 3 weeks vs untreated controls
Summary of the method: as §4

Setaria viridis (SETVI) [32] = test: Herbicidal post-emergence action (B), 1280 g/ha; conditions: rated visually after about 3 weeks vs untreated controls
Summary of the method: as §4

[33] = test system: Abutilon theophrasti (ABUTH); test: Herbicidal pre-emergence action (A), 1280 g/ha; conditions: visual grading after ca. 3 weeks vs untreated controls, 100% = plants have died off, 0% = as control plants
Summary of the method: as §3

[34] = test system: Matricaria inodora (MATIN); test: Herbicidal post-emergence action (B), 1280 g/ha; conditions: rated visually after about 3 weeks vs untreated controls
Summary of the method: as §4

Row | Structure (SMILES) | herbicidal effect AMARE [2] [%] | herbicidal effect SETVI (Setaria viridis (SETVI) [4]) [%] | herbicidal effect KCHSC [6] [%] | herbicidal effect AMARE [7] [%] | ALOMY, herbicidal effect in percent (%) [8] [%] | POAAN, herbicidal effect in percent (%) (Poa annua (POAAN) [9]) | LOLRI, herbicidal effect in percent (%) (Lolium rigidum (LOLRI) [10]) | ECHCG, herbicidal effect in percent (%) [11] [%] | herbicidal effect SETVI (Setaria viridis (SETVI) [12]) [%] | herbicidal effect STEME (Stellaria media (STEME) [13]) [%] | DIGSA, herbicidal effect in percent (%) [14] [%] | herbicidal effect VERPE (Veronica persica (VERPE) [15]) [%] | herbicidal effect KCHSC [16] [%] | herbicidal activity AMARE [17] [%] | herbicidal activity ALOMY [18] [%] | herbicidal activity ABUTH [19] [%] | herbicidal activity POAAN (Poa annua (POAAN) [20]) [%] | LOLRI, activity rated visually (%) (Lolium rigidum (LOLRI) [21]) | herbicidal effect STEME (Stellaria media (STEME) [22]) [%] | herbicidal effect VERPE (Veronica persica (VERPE) [24]) [%] | other results
1 | Fc1cccc(-c2nc3ncsc3cc2Cl)c1 [Example I-068] | 90 | 100 | 100 | 90 | 100 | 100 | 100 | 100 | 100 | 100 | 100 | 90 | 100 | 90 | 90 | 90 | 100 | 90 | 90 | 100 | herbicidal effect AMARE [1]: 90%; herbicidal effect ALOMY [3]: 100%; herbicidal effect VERPE (Veronica persica (VERPE) [5]): 80%; herbicidal activity DIGSA [23]: 100%
2 | Clc1ccccc1-c1nc2ncsc2cc1Cl [Example I-069] | 90 | 100 | 90 | – | 100 | 100 | 90 | 100 | 100 | 90 | 100 | 90 | 90 | 90 | 100 | – | 100 | 90 | 100 | 100 | herbicidal effect AMARE [1]: 80%; herbicidal effect ALOMY [25]: 90%; herbicidal effect VERPE (Veronica persica (VERPE) [26]): 90%; herbicidal effect ALOMY [3]: 100%; herbicidal effect LOLRI (Lolium rigidum (LOLRI) [27]): 100%; herbicidal effect ECHCG [28]: 100%; herbicidal effect VERPE (Veronica persica (VERPE) [5]): 90%; herbicidal effect DIGSA [29]: 100%; herbicidal effect MATIN [30]: 90%; herbicidal activity ECHCG [31]: 100%; herbicidal activity SETVI (Setaria viridis (SETVI) [32]): 90%
3 | Cc1ccccc1-c1ccc2scnc2n1 [Example I-105] | – | – | 100 | 90 | – | 100 | 100 | 100 | 100 | 100 | 100 | – | – | 100 | – | 90 | 100 | 100 | 100 | – | herbicidal effect ECHCG [28]: 90%; herbicidal effect MATIN [30]: 100%; ABUTH, herbicidal effect in percent (%) [33]: 90%; herbicidal activity ECHCG [31]: 100%; herbicidal activity SETVI (Setaria viridis (SETVI) [32]): 90%
4 | Cc1ccsc1-c1nc2ncsc2cc1Br [Example I-132] | 90 | 100 | 100 | 100 | 100 | 100 | 100 | 100 | 100 | 90 | 100 | 100 | 90 | 90 | 100 | 90 | 90 | 100 | 100 | 100 | herbicidal effect LOLRI (Lolium rigidum (LOLRI) [27]): 100%; herbicidal effect ECHCG [28]: 100%; herbicidal effect MATIN [30]: 90%; herbicidal activity MATIN [34]: 90%; herbicidal activity ECHCG [31]: 100%; herbicidal activity SETVI (Setaria viridis (SETVI) [32]): 90%; herbicidal activity DIGSA [23]: 90%

— patent US20230151025A1, “SUBSTITUTED THIAZOLOPYRIDINES, SALTS THEREOF AND THEIR USE AS HERBICIDALLY ACTIVE SUBSTANCES” (Bayer Aktiengesellschaft, priority 2020, published 2023)
